Measurements published in US11192902B1, “Heterocyclic diazenyl pyridinone copper(II) complexes as pharmacological antitumor agents” (King Abdulaziz University, priority 2020, dated 2021).

Key:
[1] = test system: MCF-7 human breast adenocarcinoma cells; assay: Cytotoxicity against MCF-7 human breast adenocarcinoma cells (MTT); assay type: cell-based; conditions: MCF-7 cells, 48 hrs
[2] = test system: human primary hepatocytes THLE-2 (normal cell line); assay: Cytotoxic activity test on normal cell line THLE-2 (MTT assay); assay type: cell-based
Description: The samples were tested against the human primary hepatocytes THLE-2 (normal cell line, ATCC). Cells were maintained at sub-confluency at 37° C. in humidified air containing 5% CO2. The samples' concentrations ranged between (100 to 0.78 μg/ml) and the MTT assay was used to assess cell death.

CCCCCCn1c([O-])c(N=Nc2ccc(C)cc2)c(C)c(C#N)c1=O.CCCCCCn1c([O-])c(N=Nc2ccc(C)cc2)c(C)c(C#N)c1=O.[Cu+2] [D4]
Mean IC50, MCF-7 human breast adenocarcinoma cells [1]: 83.72 µg/mL
Mean IC50, THLE-2 human normal hepatocytes ([2]; THLE-2 cells, 48 hrs, MTT, 100 to 0.78 μg/ml, mean): 169.76 μg/mL
effect on the normal cell line (safety) ([2]; THLE-2 normal cell line, at the high concentration of 100 ppm): safe
